Laboratory results from publication PMC10607366 (International Journal of Molecular Sciences, 2023).
Structures can show the parent of a compound that is named as a salt.

Key:
in vitro = conditions: dog
[1] = system: H1N1 A/Netherlands/602/2009 (N09); assay: microbe, parasite or virus in culture; assay type: cell-based; conditions: Influenza A virus, H1N1, MDCK, read-out: EC50 (95% CI)
[2] = system: H1N1 A/Netherlands/602/2009 (N09); assay: microbe, parasite or virus in culture; conditions: Influenza A virus, H1N1, A549, 48 h
[3] = system: H1N1 A/Netherlands/602/2009 (N09); assay: microbe, parasite or virus in culture; assay type: cell-based, Influenza A virus; conditions: for inhibition at 10 µM: Influenza A virus, H1N1, A549, 48 h; for Inhibition (%): 10 µM
[4] = system: H1N1 A/Netherlands/602/2009 (N09); conditions: 10 µM
influenza virus = conditions: cited from earlier work
[5] = system: H1N1 A/Netherlands/602/2009 (N09); assay type: cell-based, Influenza A virus
[6] = system: H1N1 A/Netherlands/602/2009 (N09); assay type: cell-based, Influenza A virus; remark: listed apart in the source
[7] = system: H1N1 A/Netherlands/602/2009 (N09); assay type: cell-based, Influenza A virus; remark: listed apart in the source
[8] = system: clinical influenza A strain (H1N1); assay type: cell-based, Influenza A virus

SMILES | CC50 (in vitro) | EC50 [1] | viability at 10 µM [2] | inhibition at 10 µM [3] | also measured
CC[C@H](c1ccc(O)cc1)[C@@H](CC)c1ccc(O)cc1 [Hexestrol] | 46.9 µM | 0.14 µM |  |  | 
OC(CCN1CCCC1)(c1ccccc1)C1CCCCC1 (stereo not drawn) [Procyclidine hydrochloride] |  |  | 91% | 97% | 
COc1ccc2c(c1)[C@]13CCCC[C@@H]1[C@H](C2)N(C)CC3 [Dextromethorphan hydrobromide monohydrate] |  |  | 103% | 100% | 
CCN(CC)CCNC(C(=O)OCCC(C)C)c1ccccc1.Cl.Cl (stereo not drawn) [Camylofine chlorhydrate] |  |  |  |  | Viability (%) [4]: 97%; Inhibition (%) [3]: 97%
CCN(CCCc1ccccc1)CCCc1ccccc1.O=C(O)CC(O)(CC(=O)O)C(=O)O [Alverine citrate salt] |  |  |  |  | Viability (%) [4]: 145%; Inhibition (%) [3]: 99%
C/C=C(/C(=C/C)c1ccc(O)cc1)c1ccc(O)cc1 [Dienestrol] | 32.6 µM | 3.13 µM |  |  | 
Oc1ccc(/C=C/c2cc(O)cc(O)c2)cc1 [Resveratrol] | 52 µM | > 10 µM |  |  | Reported inhibition of influenza (influenza virus): inhibit influenza
CC/C(=C(/CC)c1ccc(O)cc1)c1ccc(O)cc1 [Diethylstilbestrol] | 9.81 µM |  | 72% | 114% | Viral RNA replication [5]: inhibited; Inhibition of SARS-CoV-2 (SARS-CoV-2 B.1.1.7): did not inhibit; Toxicity in Mucilair tissues (MucilAir tissues): absence of toxicity; Attachment of the virus [6]: not inhibited; Inhibition, pre-treatment [7]: good inhibition; Potency when added post-infection [7]: potency of the compound was lost; Reduction of viral load [8]: more than one log
C[C@H](Cc1ccc(O)c(O)c1)[C@@H](C)Cc1ccc(O)c(O)c1 [Masoprocol] | 84.9 µM | > 10 µM |  |  | 
C=C[C@@](C)(/C=C/c1ccc(O)cc1)CCC=C(C)C [Bakuchiol] |  | 0.94 µM |  |  | CC50 at 24 h (in vitro): 46.2 µM; Reported inhibition of influenza virus (influenza virus): inhibit influenza virus
